This note sets out measurements from patent publication US6710048B2, “Pyrazine derivatives as modulators of tyrosine kinases” (Ortho-McNeil Pharmaceutical, Inc., priority 2000, dated 2004).

pIC50: −log10 of the molar value.

For one assay, the system named is rat aortic ring. In words: Rat aortic ring assay (vascular sprouting). In kind it is cell-based. As to conditions: 192 h; rat aortic ring in fibrin gel, analyzed on day 8; read-out: Inhibition of Vascular Sprouting (IC50μM). How it is done:
The rat aortic ring assay is a rapid in vitro assay that measures new capillary growth in an environment that closely approximates the in vivo conditions of the extracellular matrix. The assay was performed as described (Nicosia, R F and Ottinetti, A. Growth of new microvessels in serum-free matrix culture of rat aorta. Lab Invest., 63: 115-122, 1990). Thoracic aortas were removed from 1 to 2-month old male Sprague-Dawley rats and transferred to a culture dish containing serum-free MCDB 131 medium (Clonetics). Extraneous tissue was removed and the aorta was sectioned into rings approximately 1 mm long and rinsed 8-10 times in serum-free medium. A solution of sterile 1.5% agarose (Type VI-A, Sigma, St. Louis, Mo.) was added to the wells of a 6-well plate. The wells were filled with clotting fibrinogen solution and an aortic ring was transferred into the well positioned with the lumen oriented horizontally in the center of the fibrin gel solution. The fibrinogen solution was prepared in MCDB 131 medium with bovine fibrinogen at 3 mg/ml. Clotting was initiated by adding 20 μl of a 50 NIH units/ml bovine thrombin solution and the fibrin gel generally formed within 30 seconds. The fibrinolytic inhibitor amino-n-caproic acid was added to the culture medium at 300 µg/ml (microgram per milliliter) for the first four days of the assay and at 50 μg/ml from day 5 to day 8. Once the fibrin gel solution solidified, 5 ml of serum-free MCDB 131 media containing 100 μg/ml penicillin, 100 μg/ml streptomycin and 0.25 μg/ml amphotericin B was added to each well. Explants were incubated at 37° C. with 5% CO2 for 8 days. Medium was replaced every 2-3 days and the assay was analyzed on day 8. Inhibition of vascular sprouting was measured by adding test compounds diluted in DMSO.

The subject of assay [1] is A375 human melanoma cells. Kind of assay: In vivo inhibition of tumor growth (A375 in athymic mice). As to conditions: A375 cells s.c. in male athymic mice, intraperitoneally once a day for 30 days, 50 mg/Kg and 5 mg/Kg (FIG. 1). The arrangement: species or system mouse. From the text: The in vivo effect of a compound on the growth of human tumor cells can be evaluated by implanting human tumor cells into the hindflank of athymic mice and administering test compound to the mice. Such assays are useful in identifying and confirming compounds that are useful for inhibiting angiogenesis or to identify compounds that can inhibit VEGF activity and therefor are useful for treating a variety of cancers or other diseases associated with abnormal or aberrant angiogenesis, such as those diseases discussed supra. Human tumor cells originating from a variety of different cancer types, such as A375 human melanoma cells, were implanted subcutaneously into the hindflank of male athymic mice (Charles River) and allowed to establish a sizeable tumor for 6-10 days as determined by caliper measurements. Test compound was then administered by injecting the compound formulated in an appropriate vehicle, here saline was used as the vehicle, intraperitoneally into the mice once a day for 30 days. The test compound can also be administered by other routes such as orally, sub cutaneously or by intravenous infusion. The size of the tumor in this study was measured every four days and the degree of inhibition was determined by comparing drug-treated animals to animals that were injected with vehicle only. […]

A further assay has as its system MDA-MB-231. Kind of assay: Cell proliferation assay (14C-thymidine incorporation), MDA-MB-231. In kind it is cell-based. As to conditions: Homo sapiens, read-out: Inhibition of cell proliferation IC50. How it is done: (§1) The ability of a test compound to inhibit the proliferation of cell growth was determined by measuring incorporation of ^14C-labelled thymidine into newly synthesized DNA within the cells. This method was used on cell lines derived from carcinomas originating from several tissues such as HeLa cervical adenocarcinoma (American Type Culture Collection (ATCC), Virginia, Cat. #CCL-2), A375 malignant melanoma (ATCC CRL-1619), SK-OV-3 ovarian adenocarcinoma (ATCC HTB-77) HCT-116 colon carcinoma (CCL-247) and PC-3 prostate adenocarcinoma (ATCC CRL-1435). The method was also used on primary cells such as HUVEC endothelial cells (ATCC CRL-1730). In this way the effect of a compound on cell growth of cells with many different phenotypes can be determined. Cells were trypsinized and counted and 3000-8000 cells were added to each well of a 96-well CytoStar tissue culture treated scintillating microplate (Amersham #RPNQ0160) in complete medium in a volume of 100 μl. Cells were incubated for 24 hours in complete medium at 37° C. in an atmosphere containing 5% CO2.
(§2) Next, 1 μl of test compound in 100% DMSO was added to the wells of the plate. DMSO only was added to control wells. Cells were incubated for 24 more hours in complete medium at 37° C. in an atmosphere containing 5% CO2. Methyl ^14C-thymidine 56 mCi/mmol (NEN #NEC568 or Amersham #CFA532) was diluted in complete medium and 0.2 μCi/well was added to each well of the CytoStar plate in a volume of 20 μl. The plate was incubated for 24 hours at 37° C. plus 5% CO2 in drug plus ^14C-thymidine. The contents of the plate were discarded into a ^14C radioactive waste container by inverting the plate and the plate was washed twice with 200 μl PBS. 200 μl of PBS is then added to each well. The top of the plate was sealed with a transparent plate sealer and a white plate backing sealer (Packard #6005199) was applied to the bottom of the plate. The degree of Methyl ^14C-thymidine incorporation was quantified on a Packard Top Count.

A further assay deals with HCT-116 colon carcinoma. Kind of assay: Cell proliferation assay (14C-thymidine incorporation), HCT-116. In kind it is cell-based. As to conditions: Homo sapiens, read-out: Inhibition of cell proliferation IC50. How it is done: as §1, §2
On the technique in general: Incorporation of labelled thymidine or its analogues reports DNA synthesis.

With `CN(C)CCNc1cncc(-c2cncc(Nc3cccc(Cl)c3)n2)c1` [Cmd 33, N′-[5-[6-[(3-chlorophenyl)amino]pyrazinyl]-3-pyridinyl]-N^2,N^2-dimethyl-1,2-ethanediamine], the values for the pIC50 in the assay on rat aortic ring, in the assay with MDA-MB-231 and with HCT-116 colon carcinoma were less than 6.00, 4.90 and less than 4.00, respectively. Moreover, the “tumor growth delay (tumor size)” value is “delay of tumor size progression” in assay [1] and “tumor growth delay” in assay [1] (listed as compound 33).
